Results from patent US8299223B2, “Pseudoglycolipid and use thereof” (Riken, priority 2007, dated 2012).

Experiments:
IFN-γ [1] = assay: Experimental Example 1: IFN-γ content of plasma after intraperitoneal injection in C57BL/6 mouse (Cytometric bead array); assay type: in vivo; settings: intraperitoneal 100, 10 or 1 μg/kg body weight, plasma 6, 12, 24, 36 and 48 hr after administration, FIG. 1
Protocol: (§1) Compound 11′ was dissolved in […] saline (manufactured by OTSUKA PHARMACEUTICAL CO., LTD) containing Tween 20 (Bio-Rad) and prepared to a dose of 100 μg/kg body weight, 10 μg/kg body weight or 1 μg/kg body weight C57BL/6 mouse (5 per group), and the compound 11′ solution (200 μL) was intraperitoneally injected.
(§2) α-GalCer was used as a control substance, and 200 μL of each α-GalCer solution prepared to a dose of 100 μg/kg body weight, 10 μg/kg body weight or 1 μg/kg body weight according to a similar method was intraperitoneally injected.
(§3) A group administered with a medium (200 μL of saline containing 0.5% Tween 20) was taken as a negative control. The blood (80 μL) was taken from the orbital plexus venosus immediately before administration and 3, 6, 12, 24, 36 and 48 hr after administration, and the plasma was prepared. The IL-4 content of plasma immediately before administration and 3, 6 and 12 hr after administration, as well as IFN-γ content of plasma immediately before administration and 6, 12, 24, 36 and 48 hr after administration were measured by Cytometric bead array system (BD Biosciences), which is one kind of the ELISA method. The measurement results of IFN-γ production amount are shown FIG. 1 and the measurement results of IL-4 production amount are shown in FIG. 2.

IL-4 [2] = assay: Experimental Example 1: IL-4 content of plasma after intraperitoneal injection in C57BL/6 mouse (Cytometric bead array); assay type: in vivo; settings: intraperitoneal 100, 10 or 1 μg/kg body weight, plasma 3, 6 and 12 hr after administration, FIG. 2
Protocol: as §1, §2, §3

B16 melanoma = assay: Experimental Example 2: anti-liver metastasis effect, survival after intrasplenic transfer of B16 melanoma; assay type: in vivo, mouse; settings: FIG. 3
Protocol: The following experiment was performed for the anti-liver metastasis effect.
The left side of mouse was opened under anesthesia, and the spleen was exposed. 1×10^6 B16 melanoma was intrasplenically transferred using a 1 mL syringe (TERUMO CORPORATION), maintained for 30 sec, and the blood vessel was sutured. The spleen was isolated and the peritoneal membrane was sutured with a surgical thread (No. 4, Alfresa Pharma Corporation), and the outer skin was joined with a surgical clip. After 3 hr from the cell transfer, α-GalCer and compound 11′ were administered each in an amount of 2, 0.2 or 0.02 μg per mouse from the tail vein and the survival rate of each group was examined.

IFN-γ [3] = assay: Experimental Example 3: human NKT cell proliferation and IFN-γ production induction, dendritic cells plus peripheral blood mononuclear cells, IFN-γ in culture supernatant; assay type: cell-based; settings: as compared to α-GalCer and α-C-GalCer; for IFN-γ concentration of the culture supernatants: 3 days and 8 days later, FIG. 4 (a), (b); for selectivity of IFN-γ production induction: IFN-γ versus IL-4, FIG. 4 (a)-(d)
Protocol: (§4) The following experiment was performed for human NKT cell proliferation and IFN-γ production induction.
(§5) Monocytes were prepared from the peripheral blood of a healthy subject by anti-CD14 microbeads (Miltenyi Biotech), and dendritic cells were induced using GM-CSF and IL-4 (Peprotech). To the dendritic cells was added α-GalCer or synthetic glycolipid (α-C-GalCer, compound 11′, compound 51′), human peripheral blood mononuclear cell was added and the cells were cultured.
In this experiment, the IFN-γ concentration of the culture supernatants 3 days and 8 days later was measured. As a result, the concentration was very high when stimulated with compound 11′ and compound 51′ as compared to α-GalCer and α-C-GalCer (FIG. 4 (a), (b)).

IL-4 [4] = assay: Experimental Example 3: dendritic cells plus human peripheral blood mononuclear cells, IL-4 in culture supernatant; assay type: cell-based; settings: culture supernatants; as compared to α-GalCer and α-C-GalCer; FIG. 4
Protocol: as §4, §5

SMILES	IFN-γ production amount (IFN-γ [1])	IL-4 production amount (IL-4 [2])	survival period (B16 melanoma; 2, 0.2 or 0.02 μg per mouse from the tail vein 3 hr after cell transfer, as compared to the non-treatment group and the α-GalCer administration group)	survival period (B16 melanoma; administration of 0.2 and 0.02 μg per mouse, as compared to the α-GalCer administration group)	IFN-γ concentration of the culture supernatants (IFN-γ [3])	selectivity of IFN-γ production induction (IFN-γ [3])	IL-4 concentration (IL-4 [4])
CCCCCCCCCCCCCCCCCCCCCCCCCC(=O)N[C@@H](COC1OC(CO)C(O)C(O)C1O)[C@H](O)[C@H](O)CCCCCCCCCCCCCC (stereo partly drawn) [α-GalCer, α-galactosylceramide, reference compound]	in large amounts	in large amounts					
CCCCCCCCCCCCCCCCCCCCCCCCCC(=O)N[C@@H](CO[C@H]1CC(CO)[C@H](O)C(O)C1O)[C@H](O)[C@H](O)CCCCCCCCCCCCCC (stereo partly drawn) [compound 11′, (2S,3S,4R)-1-(5a-carba-α-D-galactopyranosyloxy)-2-(hexacosanoylamino)-3,4-octadecanediol]	preferentially produced IFN-γ	in a small amount	extended	remarkable elongated	very high	selectively induced IFN-γ production	almost the same
CCCCCCCCCCCCCCCCCCCCCCCCCC(=O)N[C@@H](CO[C@H]1C[C@H](C)[C@H](O)[C@H](O)[C@H]1O)[C@H](O)[C@H](O)CCCCCCCCCCCCCC [compound 51′, (2S,3S,4R)-1-(5a-carba-α-D-fucopyranosyloxy)-2-(hexacosanoylamino)-3,4-octadecanediol]					very high	selectively induced IFN-γ production	almost the same
